Structures are written as SMILES. Read-outs that look alike come from different tables or passages of the source.

This test addresses T1, Human Polymorphonuclear Leukocyte Elastase (Homo sapiens, UniProt P08246).
T1 construct: Crude extract of human polymorphonuclear leukocytes (PMN) containing elastase activity; from tissue; host or cells: human polymorphonuclear leukocytes (crude extract)
T1 sequence (P08246 30-247 limits assumed): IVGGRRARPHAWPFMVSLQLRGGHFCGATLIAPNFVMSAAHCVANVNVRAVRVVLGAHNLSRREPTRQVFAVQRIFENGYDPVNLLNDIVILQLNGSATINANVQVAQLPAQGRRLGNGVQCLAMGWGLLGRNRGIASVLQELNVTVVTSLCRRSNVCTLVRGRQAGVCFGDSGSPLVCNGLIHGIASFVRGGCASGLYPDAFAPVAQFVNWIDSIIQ
Put plainly: Inhibition of human PMN elastase via hydrolysis of N-t-Boc-alanyl-alanyl-prolylalanine-p-nitroanilide. It counts as biochemical. The conditions noted are these: pH 7.5. The method, then:
Protocol-Enzyme Assays for the Inhibition of Human Polymorphonuclear Leukocyte Elastase Via Hydrolysis of N-t-Boc-alanyl-alanyl-prolylalanine-p-nitroanilide Reagents:
0.05M TES (N-tris[hydroxymethyl]methyl-2-amino-ethanesulfonic acid) Buffer, pH 7.5.
0.2 mM N-t-Boc-alanyl-alanyl-Prolyl-Alanine-p-nitroanilide (Boc-AAPAN).
To prepare substrate, the solid (m.w. 550) was first dissolved in 10.0 ml DMSO. Buffer at pH 7.5 was then added to a final volume of 100 ml.
Crude extract of human polymorphonuclear leukocytes (PMN) containing elastase activity.
Inhibitors (N-carboxyl-thienamycin eesters) to be tested dissolved in DMSO just before use.
To 1.0 ml of 0.2 mM Boc-AAPAN in a cuvette, 0.01-0.1 ml of DMSO with or without inhibitor was added. After mixing, a measurement was taken at 410 mμ to detect any spontaneous hydrolysis due to presence of test compound. 0.05 Milliliters of PMN extract was then added and the ΔOD/min at 410 mμ was measured and recorded. Beckman model 35 spectrophotometer was used.
Results were reported as % inhibition produced by test compound within 2 minutes as represented by the % decrease in ΔOD/min as compared to a control without inhibitor.
The elastase activity in the crude PMN extract may vary from one preparation to another. A control of each new batch is run, and the volume added in the assay procedure is adjusted according to activity.

Usually inhibition stands for how much of the control response was suppressed. Consider `CC(O)C1C(=O)N2C(C(=O)OCc3ccc([N+](=O)[O-])cc3)=C(SCC(C)(C)NC(=O)OCc3ccc([N+](=O)[O-])cc3)CC12` (centres unmarked), for which 0.5 µg/mL produced 45% inhibition, at 5 µg/mL the inhibition was 89% and the inhibition at 20 µg/mL was determined as 100%.

`CC(OC(=O)OCc1ccc([N+](=O)[O-])cc1)C1C(=O)N2C(C(=O)OCc3ccc([N+](=O)[O-])cc3)=C(SCCNC(=O)OCc3ccc([N+](=O)[O-])cc3)CC12` (centres unmarked) displayed an inhibition at 10 µg/mL of 29%, an inhibition at 25 µg/mL of 45% and an inhibition at 50 µg/mL of 55%.

For the compound `CC(CSC1=C(C(=O)OCc2ccc([N+](=O)[O-])cc2)N2C(=O)C(C(C)O)C2C1)NC(=O)OCc1ccc([N+](=O)[O-])cc1` (centres unmarked), the inhibition at 0.5 µg/mL is 42%, at 1 µg/mL the inhibition was 55%, testing at 2 µg/mL gave an inhibition of 77% and the inhibition at 10 µg/mL came to 94%. The compound also registered an inhibition at 25 µg/mL of 100%.

Consider `CC(O)C1C(=O)N2C(C(=O)OCc3ccccc3)=C(SCCNC(=O)OCc3ccccc3)CC12` (centres unmarked) [" benzyl benzyl H H], for which the inhibition at 5 µg/mL (conc. 5 μg/ml, measured within 2 minutes, crude PMN extract, Boc-AAPAN substrate, read-out: % Inhibition) was determined as 33%. The inhibition at 20 µg/mL (conc. 20 μg/ml, measured within 2 minutes, crude PMN extract, Boc-AAPAN substrate, read-out: % Inhibition) came out at 69%. For the same compound, the inhibition at 50 µg/mL (conc. 50 μg/ml, measured within 2 minutes, crude PMN extract, Boc-AAPAN substrate, read-out: % Inhibition) was determined as 86%.

Take `O=C(NCCSC1=C(C(=O)OCc2ccc([N+](=O)[O-])cc2)N2C(=O)CC2C1)OCc1ccc([N+](=O)[O-])cc1` (centres unmarked) [H PNB PNB H H]: the inhibition at 5 µg/mL stood at 18%, the inhibition at 20 µg/mL stood at 50% and 50 µg/mL produced 63% inhibition.

(Values after patent US4495197A, “N-Carboxyl-thienamycin esters and analogs thereof as anti-inflammatory agents” (Merck & Co., Inc., priority 1982, dated 1985).)
